Oligonucleotides are written 5' to 3', each unit as a sugar letter and its base; * is a phosphorothioate linkage, no mark a phosphodiester; rarer units and linkages stand in square brackets, end groups in braces. Plain capitals give the bases only. Oligonucleotides are given in HELM: sugar(base)linkage, 5' to 3'; d 2'-deoxyribose, r ribose, m 2'-O-methylribose, p phosphate. ss, as = sense and antisense strand; d = 2'-deoxy (DNA); r = 2'-OH (RNA)

For 21 substances, normalised inhibition (eCFP-eYFP dual reporter) results are on record in the OligoGym collection.
Further: test concentration or dose not given here.

One data set deals with MRFAP1. The data set can be described thus: reporter assay of Huesken 2005. The note with it: siRNA.
For the substance “sense rArArArArUrArArCrUrUrUrGrArUrUrUrGrGrAdTdT / antisense rUrCrCrArArArUrCrArArArGrUrUrArUrUrUrUdCdC”, the normalised inhibition (eCFP-eYFP dual reporter) came to 69.9%.

Take “sense rArArArArUrCrUrUrArCrArUrGrUrUrArArUrAdTdT / antisense rUrArUrUrArArCrArUrGrUrArArGrArUrUrUrUdGdT”: the normalised inhibition (eCFP-eYFP dual reporter) turned out to be 76.5%.

In the next data set the target is TMEM63B. The data set is described as follows: reporter assay of Huesken 2005. The note with it: siRNA.
Regarding “RNA1{r(U)p.r(C)p.r(C)p.r(U)p.r(G)p.r(G)p.r(G)p.r(A)p.r(G)p.r(C)p.r(U)p.r(C)p.r(A)p.r(G)p.r(G)p.r(G)p.r(G)p.r(A)p.r(U)p.d(T)p.d(T)}|RNA2{r(A)p.r(U)p.r(C)p.r(C)p.r(C)p.r(C)p.r(U)p.r(G)p.r(A)p.r(G)p.r(C)p.r(U)p.r(C)p.r(C)p.r(C)p.r(A)p.r(G)p.r(G)p.r(A)p.d(G)p.d(C)}$$$RNA1{StrandType:ss}|RNA2{StrandType:as}$”, the normalised inhibition (eCFP-eYFP dual reporter) amounted to 52%.

“RNA1{r(U)p.r(C)p.r(G)p.r(C)p.r(C)p.r(U)p.r(A)p.r(A)p.r(U)p.r(G)p.r(U)p.r(U)p.r(C)p.r(C)p.r(U)p.r(C)p.r(G)p.r(A)p.r(U)p.d(T)p.d(T)}|RNA2{r(A)p.r(U)p.r(C)p.r(G)p.r(A)p.r(G)p.r(G)p.r(A)p.r(A)p.r(C)p.r(A)p.r(U)p.r(U)p.r(A)p.r(G)p.r(G)p.r(C)p.r(G)p.r(A)p.d(G)p.d(C)}$$$RNA1{StrandType:ss}|RNA2{StrandType:as}$”: the normalised inhibition (eCFP-eYFP dual reporter) is 77.9%.

“RNA1{r(U)p.r(C)p.r(G)p.r(U)p.r(C)p.r(C)p.r(U)p.r(C)p.r(U)p.r(U)p.r(C)p.r(A)p.r(U)p.r(C)p.r(C)p.r(U)p.r(C)p.r(C)p.r(U)p.d(T)p.d(T)}|RNA2{r(A)p.r(G)p.r(G)p.r(A)p.r(G)p.r(G)p.r(A)p.r(U)p.r(G)p.r(A)p.r(A)p.r(G)p.r(A)p.r(G)p.r(G)p.r(A)p.r(C)p.r(G)p.r(A)p.d(C)p.d(A)}$$$RNA1{StrandType:ss}|RNA2{StrandType:as}$” showed a normalised inhibition (eCFP-eYFP dual reporter) of 55.8%.

In the case of “RNA1{r(U)p.r(C)p.r(U)p.r(G)p.r(G)p.r(G)p.r(G)p.r(A)p.r(G)p.r(A)p.r(A)p.r(C)p.r(A)p.r(G)p.r(G)p.r(A)p.r(C)p.r(A)p.r(A)p.d(T)p.d(T)}|RNA2{r(U)p.r(U)p.r(G)p.r(U)p.r(C)p.r(C)p.r(U)p.r(G)p.r(U)p.r(U)p.r(C)p.r(U)p.r(C)p.r(C)p.r(C)p.r(C)p.r(A)p.r(G)p.r(A)p.d(G)p.d(C)}$$$RNA1{StrandType:ss}|RNA2{StrandType:as}$”, the normalised inhibition (eCFP-eYFP dual reporter) is 68%.

With “RNA1{r(U)p.r(C)p.r(U)p.r(G)p.r(U)p.r(C)p.r(U)p.r(C)p.r(U)p.r(G)p.r(C)p.r(C)p.r(A)p.r(C)p.r(G)p.r(U)p.r(C)p.r(U)p.r(G)p.d(T)p.d(T)}|RNA2{r(C)p.r(A)p.r(G)p.r(A)p.r(C)p.r(G)p.r(U)p.r(G)p.r(G)p.r(C)p.r(A)p.r(G)p.r(A)p.r(G)p.r(A)p.r(C)p.r(A)p.r(G)p.r(A)p.d(T)p.d(G)}$$$RNA1{StrandType:ss}|RNA2{StrandType:as}$”, the normalised inhibition (eCFP-eYFP dual reporter) came to 68.3%.

“RNA1{r(U)p.r(C)p.r(U)p.r(U)p.r(C)p.r(A)p.r(U)p.r(C)p.r(C)p.r(U)p.r(C)p.r(C)p.r(U)p.r(C)p.r(U)p.r(U)p.r(C)p.r(U)p.r(U)p.d(T)p.d(T)}|RNA2{r(A)p.r(A)p.r(G)p.r(A)p.r(A)p.r(G)p.r(A)p.r(G)p.r(G)p.r(A)p.r(G)p.r(G)p.r(A)p.r(U)p.r(G)p.r(A)p.r(A)p.r(G)p.r(A)p.d(G)p.d(G)}$$$RNA1{StrandType:ss}|RNA2{StrandType:as}$” registered a normalised inhibition (eCFP-eYFP dual reporter) of 58.4%.

Consider “RNA1{r(U)p.r(G)p.r(A)p.r(A)p.r(U)p.r(G)p.r(A)p.r(G)p.r(A)p.r(A)p.r(G)p.r(C)p.r(C)p.r(U)p.r(C)p.r(U)p.r(U)p.r(G)p.r(G)p.d(T)p.d(T)}|RNA2{r(C)p.r(C)p.r(A)p.r(A)p.r(G)p.r(A)p.r(G)p.r(G)p.r(C)p.r(U)p.r(U)p.r(C)p.r(U)p.r(C)p.r(A)p.r(U)p.r(U)p.r(C)p.r(A)p.d(C)p.d(C)}$$$RNA1{StrandType:ss}|RNA2{StrandType:as}$”, for which the normalised inhibition (eCFP-eYFP dual reporter) stood at 39.5%.

In turn, “RNA1{r(U)p.r(G)p.r(A)p.r(C)p.r(C)p.r(A)p.r(A)p.r(A)p.r(G)p.r(G)p.r(G)p.r(A)p.r(C)p.r(A)p.r(A)p.r(U)p.r(G)p.r(G)p.r(U)p.d(T)p.d(T)}|RNA2{r(A)p.r(C)p.r(C)p.r(A)p.r(U)p.r(U)p.r(G)p.r(U)p.r(C)p.r(C)p.r(C)p.r(U)p.r(U)p.r(U)p.r(G)p.r(G)p.r(U)p.r(C)p.r(A)p.d(A)p.d(A)}$$$RNA1{StrandType:ss}|RNA2{StrandType:as}$” registered a normalised inhibition (eCFP-eYFP dual reporter) of 70.9%.

“RNA1{r(U)p.r(G)p.r(C)p.r(A)p.r(C)p.r(A)p.r(A)p.r(G)p.r(U)p.r(G)p.r(C)p.r(U)p.r(A)p.r(C)p.r(A)p.r(C)p.r(U)p.r(U)p.r(U)p.d(T)p.d(T)}|RNA2{r(A)p.r(A)p.r(A)p.r(G)p.r(U)p.r(G)p.r(U)p.r(A)p.r(G)p.r(C)p.r(A)p.r(C)p.r(U)p.r(U)p.r(G)p.r(U)p.r(G)p.r(C)p.r(A)p.d(T)p.d(G)}$$$RNA1{StrandType:ss}|RNA2{StrandType:as}$” came in with a normalised inhibition (eCFP-eYFP dual reporter) of 99.1%.

The substance “RNA1{r(U)p.r(G)p.r(C)p.r(A)p.r(G)p.r(C)p.r(G)p.r(A)p.r(G)p.r(U)p.r(C)p.r(C)p.r(C)p.r(U)p.r(G)p.r(C)p.r(A)p.r(C)p.r(A)p.d(T)p.d(T)}|RNA2{r(U)p.r(G)p.r(U)p.r(G)p.r(C)p.r(A)p.r(G)p.r(G)p.r(G)p.r(A)p.r(C)p.r(U)p.r(C)p.r(G)p.r(C)p.r(U)p.r(G)p.r(C)p.r(A)p.d(G)p.d(G)}$$$RNA1{StrandType:ss}|RNA2{StrandType:as}$” registered a normalised inhibition (eCFP-eYFP dual reporter) of 25.9%.

On to “RNA1{r(U)p.r(G)p.r(C)p.r(C)p.r(A)p.r(C)p.r(C)p.r(C)p.r(G)p.r(A)p.r(C)p.r(G)p.r(C)p.r(C)p.r(C)p.r(U)p.r(C)p.r(A)p.r(C)p.d(T)p.d(T)}|RNA2{r(G)p.r(U)p.r(G)p.r(A)p.r(G)p.r(G)p.r(G)p.r(C)p.r(G)p.r(U)p.r(C)p.r(G)p.r(G)p.r(G)p.r(U)p.r(G)p.r(G)p.r(C)p.r(A)p.d(T)p.d(C)}$$$RNA1{StrandType:ss}|RNA2{StrandType:as}$”, for which the normalised inhibition (eCFP-eYFP dual reporter) was determined as 12.7%.

“RNA1{r(U)p.r(G)p.r(C)p.r(C)p.r(G)p.r(U)p.r(G)p.r(G)p.r(G)p.r(G)p.r(A)p.r(G)p.r(C)p.r(C)p.r(A)p.r(C)p.r(G)p.r(C)p.r(C)p.d(T)p.d(T)}|RNA2{r(G)p.r(G)p.r(C)p.r(G)p.r(U)p.r(G)p.r(G)p.r(C)p.r(U)p.r(C)p.r(C)p.r(C)p.r(C)p.r(A)p.r(C)p.r(G)p.r(G)p.r(C)p.r(A)p.d(G)p.d(G)}$$$RNA1{StrandType:ss}|RNA2{StrandType:as}$” yielded a normalised inhibition (eCFP-eYFP dual reporter) of 62.7%.

With “RNA1{r(U)p.r(G)p.r(C)p.r(U)p.r(G)p.r(C)p.r(C)p.r(U)p.r(G)p.r(U)p.r(C)p.r(A)p.r(A)p.r(C)p.r(U)p.r(U)p.r(C)p.r(U)p.r(C)p.d(T)p.d(T)}|RNA2{r(G)p.r(A)p.r(G)p.r(A)p.r(A)p.r(G)p.r(U)p.r(U)p.r(G)p.r(A)p.r(C)p.r(A)p.r(G)p.r(G)p.r(C)p.r(A)p.r(G)p.r(C)p.r(A)p.d(C)p.d(G)}$$$RNA1{StrandType:ss}|RNA2{StrandType:as}$”, the normalised inhibition (eCFP-eYFP dual reporter) is 60.5%.

As to “RNA1{r(U)p.r(G)p.r(G)p.r(G)p.r(A)p.r(G)p.r(A)p.r(A)p.r(C)p.r(C)p.r(A)p.r(C)p.r(C)p.r(A)p.r(U)p.r(U)p.r(G)p.r(C)p.r(C)p.d(T)p.d(T)}|RNA2{r(G)p.r(G)p.r(C)p.r(A)p.r(A)p.r(U)p.r(G)p.r(G)p.r(U)p.r(G)p.r(G)p.r(U)p.r(U)p.r(C)p.r(U)p.r(C)p.r(C)p.r(C)p.r(A)p.d(A)p.d(A)}$$$RNA1{StrandType:ss}|RNA2{StrandType:as}$”, the normalised inhibition (eCFP-eYFP dual reporter) turned out to be 43.8%.

“RNA1{r(U)p.r(G)p.r(G)p.r(U)p.r(G)p.r(C)p.r(U)p.r(U)p.r(C)p.r(U)p.r(C)p.r(G)p.r(G)p.r(C)p.r(C)p.r(C)p.r(U)p.r(C)p.r(C)p.d(T)p.d(T)}|RNA2{r(G)p.r(G)p.r(A)p.r(G)p.r(G)p.r(G)p.r(C)p.r(C)p.r(G)p.r(A)p.r(G)p.r(A)p.r(A)p.r(G)p.r(C)p.r(A)p.r(C)p.r(C)p.r(A)p.d(C)p.d(A)}$$$RNA1{StrandType:ss}|RNA2{StrandType:as}$” registered a normalised inhibition (eCFP-eYFP dual reporter) of 65.1%.

Take “RNA1{r(U)p.r(G)p.r(U)p.r(G)p.r(U)p.r(A)p.r(A)p.r(A)p.r(U)p.r(G)p.r(C)p.r(C)p.r(A)p.r(G)p.r(G)p.r(G)p.r(C)p.r(U)p.r(G)p.d(T)p.d(T)}|RNA2{r(C)p.r(A)p.r(G)p.r(C)p.r(C)p.r(C)p.r(U)p.r(G)p.r(G)p.r(C)p.r(A)p.r(U)p.r(U)p.r(U)p.r(A)p.r(C)p.r(A)p.r(C)p.r(A)p.d(C)p.d(G)}$$$RNA1{StrandType:ss}|RNA2{StrandType:as}$”: the normalised inhibition (eCFP-eYFP dual reporter) was 66.8%.

As for “RNA1{r(U)p.r(U)p.r(A)p.r(U)p.r(C)p.r(G)p.r(G)p.r(C)p.r(A)p.r(A)p.r(C)p.r(G)p.r(C)p.r(C)p.r(A)p.r(U)p.r(G)p.r(G)p.r(A)p.d(T)p.d(T)}|RNA2{r(U)p.r(C)p.r(C)p.r(A)p.r(U)p.r(G)p.r(G)p.r(C)p.r(G)p.r(U)p.r(U)p.r(G)p.r(C)p.r(C)p.r(G)p.r(A)p.r(U)p.r(A)p.r(A)p.d(A)p.d(G)}$$$RNA1{StrandType:ss}|RNA2{StrandType:as}$”, the normalised inhibition (eCFP-eYFP dual reporter) was determined as 62.7%.

With “RNA1{r(U)p.r(U)p.r(G)p.r(C)p.r(U)p.r(G)p.r(A)p.r(U)p.r(G)p.r(C)p.r(C)p.r(A)p.r(C)p.r(C)p.r(C)p.r(G)p.r(A)p.r(C)p.r(G)p.d(T)p.d(T)}|RNA2{r(C)p.r(G)p.r(U)p.r(C)p.r(G)p.r(G)p.r(G)p.r(U)p.r(G)p.r(G)p.r(C)p.r(A)p.r(U)p.r(C)p.r(A)p.r(G)p.r(C)p.r(A)p.r(A)p.d(C)p.d(T)}$$$RNA1{StrandType:ss}|RNA2{StrandType:as}$”, the normalised inhibition (eCFP-eYFP dual reporter) worked out at 39.7%.

On to “RNA1{r(U)p.r(U)p.r(U)p.r(A)p.r(U)p.r(C)p.r(G)p.r(G)p.r(C)p.r(A)p.r(A)p.r(C)p.r(G)p.r(C)p.r(C)p.r(A)p.r(U)p.r(G)p.r(G)p.d(T)p.d(T)}|RNA2{r(C)p.r(C)p.r(A)p.r(U)p.r(G)p.r(G)p.r(C)p.r(G)p.r(U)p.r(U)p.r(G)p.r(C)p.r(C)p.r(G)p.r(A)p.r(U)p.r(A)p.r(A)p.r(A)p.d(G)p.d(G)}$$$RNA1{StrandType:ss}|RNA2{StrandType:as}$”, for which the normalised inhibition (eCFP-eYFP dual reporter) came out at 36.7%.
